Source: patent US20240299562A1 (priority 2020, published 2024)
pIC50: −log10 of the molar value. Where two headings read alike, the source gives them in different places. Where a SMILES comes first, the peptide text is derived from it.

Legend:
[1] = WST-1 cell viability, normal HME-1 cells; type: cell-based, human; settings: human; HME-1 normal cells; 72 hrs, WST-1 (Table 2); read-out: Maximal efficacy, cytotoxicity (%) at 100 μM
Description: (§1) All commercial cell lines were purchased at ATCC (LGC Standards SARL, France). Cells were seeded in 96-well plates according to their optimal seeding density, varying between 5.000 and 10.000 cells/well. After attachment overnight, 10-point serial titrations (1:5) were prepared in their equivalent complete media as recommended by ATCC, starting from the 10 mM stock solutions. For doxorubicin comprising prodrugs dilutions started from 100 μM, while for the parent compound doxorubicin dilutions started at 10 μM. […] Seventy-two hours later, compounds were removed together with the supernatants and cells were washed once with PBS to remove excess drugs.
(§2) The WST-1 assay for cell proliferation and viability (Roche, Switzerland) was performed according to manufacturer's protocol. Absorbances were measured at 4 hrs using a Perkin Elmer Ensight multiplate reader, equipped with Kaleido 2.0 software (Perkin Elmer, USA). Cell viability was expressed as a percentage compared to non-treated cells. Absolute IC50 values were extrapolated from a non-linear fitting following the Sigmoidal-4PL regression method using Graphpad Prism 7.0. Likewise, maximal efficacy was determined as 100% minus the cell viability determined when cells are incubated in the presence of a compound. For instance, if 20% of the cells survive incubation in the presence of a compound, then the maximal efficacy of that compound is 100%-20%=80%.
(§3) Selectivity indices (SI) were defined as the ratio of the concentration of drug required to kill 50% of the cells in normal (control, non-cancer) cells, divided by the concentration required to exert the same efficacy in tumor cells: SI=IC50 (control cell)/IC50 (cancer cell), or SI=^HME-1IC50/cancer IC50.

[2] = system: HME-1 cells; test: WST-1 cell viability, normal HME-1 cells; type: cell-based, human; settings: for pIC50: HME-1 normal cells, 72 hrs continuous drug exposure, WST-1 (Table 1), read-out: Absolute IC50
Description: as §1, §2, §3

[3] = system: U87 MG glioblastoma cells subcutaneously implanted in nude NMRI mice; test: In vivo activity of PhAc-ALLP-Dox on U87 MG glioblastoma xenograft; parameters: species or system mouse; settings: 154 mg/kg iv, once per week
Description: The in vivo efficacy of PhAc-ALLP-Dox was tested in a mouse GBM model. U87 MG glioblastoma cells were subcutaneously (SC) implanted in nude NMRI mice. In total, 32 adult (9-10 weeks old) nude female NMRI mice (Janvier, France) were subjected to SC tumor cell grafting in the right flank. In total, 5×10^6 U87 MG cells resuspended in PBS plus Matrigel (1:1) were injected in 200 uL final volume. As soon as the tumors were palpable and reached the volume of 200 mm3 the treatment was started. At day zero, mice were randomly divided into 4 groups, based on the tumor volume, in order to have the following experimental sub-cohorts: • control group receiving the vehicle (PBS pH7.2) with a dose of 5 ml/kg, intravenously (iv), once per week (QW); • PhAc-ALLP-Dox (30 mg/kg iv, QW); • PhAc-ALGP-Dox (154 mg/kg iv, QW); • Dox (5 mg/kg iv, QW).
Treatments were performed once per week for a total of four tail vein administrations/injections (on days 1, 7, 14 and 21). One extra week of observation followed the active treatment phase. During the experiment, tumor volume was measured two times a week and was assessed three-dimensionally with a digital caliper (Mitutoyo, Illinois) using the following formula:
V=4/3π×[(d/2)^2×(D/2)], where d is the minor tumor axis and D is the major tumor axis.

[4] = system: MIA PaCa-2 cells; test: WST-1 cell viability, MIA PaCa-2 pancreatic cancer cells; type: cell-based
Description: as §1, §2, §3

[5] = system: LS 174T cells; test: WST-1 cell viability, LS 174T colorectal cancer cells; type: cell-based
Description: as §1, §2, §3

[6] = system: HCT-116 cells; test: WST-1 cell viability, HCT-116 colorectal cancer cells; type: cell-based
Description: as §1, §2, §3

[7] = system: A-172 cells; test: WST-1 cell viability, A-172 glioblastoma cells; type: cell-based
Description: as §1, §2, §3

[8] = system: U-87 MG cells; test: WST-1 cell viability, U-87 MG glioblastoma cells; type: cell-based
Description: as §1, §2, §3

[9] = system: MDA-MB-231 cells; test: WST-1 cell viability, MDA-MB-231 triple negative breast cancer cells; type: cell-based
Description: as §1, §2, §3

[10] = system: MDA-MB-468 cells; test: WST-1 cell viability, MDA-MB-468 triple negative breast cancer cells; type: cell-based
Description: as §1, §2, §3

[11] = system: DU145 cells; test: WST-1 cell viability, DU145 prostate cancer cells; type: cell-based
Description: as §1, §2, §3

[12] = system: A2780 cells; test: WST-1 cell viability, A2780 ovarian cancer cells; type: cell-based
Description: as §1, §2, §3

[13] = system: A2780 Cp cells; test: WST-1 cell viability, A2780 CpR (cisplatin resistant) ovarian cancer cells; type: cell-based
Description: as §1, §2, §3

[14] = system: A2058 cells; test: WST-1 cell viability, A2058 melanoma cells; type: cell-based
Description: as §1, §2, §3

[15] = system: NCI-1299 cells; test: WST-1 cell viability, NCI-H1299 lung cancer cells; type: cell-based
Description: as §1, §2, §3

[16] = system: NCI-H292 cells; test: WST-1 cell viability, NCI-H292 lung cancer cells; type: cell-based
Description: as §1, §2, §3

[17] = system: cancer cell lines; test: In vitro potency and selectivity across a variety of cancer indications (WST-1); type: cell-based; settings: 72 hrs
Description: as §1
as §2, with “For instance, if 20% of the cells survive incubation in the presence of a compound, then the maximal efficacy of that compound is 100%-20%=80%.” left out

[18] = in mice; cited from earlier work
[19] = in dogs; cited from earlier work
[20] = chronic treatment in rats, doses up to 8-fold higher; cited from earlier work
[21] = cited from earlier work

COc1cccc2c1C(=O)c1c(O)c3c(c(O)c1C2=O)C[C@@](O)(C(=O)CO)C[C@@H]3O[C@H]1C[C@H](NC(=O)[C@@H]2CCCN2C(=O)CNC(=O)[C@H](CC(C)C)NC(=O)[C@H](C)NC(=O)CP(=O)(O)O)[C@H](O)[C@H](C)O1 [PhAc-ALGP-Dox, reference compound] (HELM PEPTIDE1{[O=C(CP(=O)(O)O)[*:2]].A.L.G.P.[COc1cccc2c1C(=O)c1c(O)c3c(c(O)c1C2=O)C[C@@](O)(C(=O)CO)C[C@@H]3O[C@H]1C[C@H](N[*:1])[C@H](O)[C@H](C)O1]}$$$$V2.0)
cytotoxicity at 72 h, 100 µM [1]: 31.2%
pIC50 [2]: < 4.00
Tumor growth [3]: significantly reduced tumor growth

COc1cccc2c1C(=O)c1c(O)c3c(c(O)c1C2=O)C[C@@](O)(C(=O)CO)C[C@@H]3O[C@H]1C[C@H](NC(=O)[C@@H]2CCCN2C(=O)[C@H](CCCCN)NC(=O)[C@@H]2CCCN2C(=O)[C@H](C)NC(=O)CP(=O)(O)O)[C@H](O)[C@H](C)O1 [PhAc-APKP-Dox] (HELM PEPTIDE1{[O=C(CP(=O)(O)O)[*:2]].A.P.K.P.[COc1cccc2c1C(=O)c1c(O)c3c(c(O)c1C2=O)C[C@@](O)(C(=O)CO)C[C@@H]3O[C@H]1C[C@H](N[*:1])[C@H](O)[C@H](C)O1]}$$$$V2.0)
cytotoxicity at 72 h, 100 µM [1]: 81.5%
SI = HME-1 IC50/cancer IC50 ([2]; HME-1 normal cells against themselves (Table 3)): 1.00
pIC50 [2]: 4.74
SI = HME-1 IC50/cancer IC50 ([4]; MIA PaCa-2 (PaC) vs HME-1 (Table 3)): 0.40
pIC50 ([4]; MIA PaCa-2 (PaC), 72 hrs, WST-1 (Table 1), read-out: Absolute IC50): 4.34
Maximal efficacy, cytotoxicity (%) at 100 μM ([4]; MIA PaCa-2 (PaC), 72 hrs, WST-1 (Table 2)): 77.65%
SI = HME-1 IC50/cancer IC50 ([5]; LS 174T (CrC) vs HME-1 (Table 3)): 1.23
pIC50 ([5]; LS 174T (CrC), 72 hrs, WST-1 (Table 1), read-out: Absolute IC50): 4.83
Maximal efficacy, cytotoxicity (%) at 100 μM ([5]; LS 174T (CrC), 72 hrs, WST-1 (Table 2)): 53.72%
SI = HME-1 IC50/cancer IC50 ([6]; HCT-116 (CrC) vs HME-1 (Table 3)): 1.47
pIC50 ([6]; HCT-116 (CrC), 72 hrs, WST-1 (Table 1), read-out: Absolute IC50): 4.91
Maximal efficacy, cytotoxicity (%) at 100 μM ([6]; HCT-116 (CrC), 72 hrs, WST-1 (Table 2)): 81.05%
SI = HME-1 IC50/cancer IC50 ([7]; A-172 (GBM) vs HME-1 (Table 3)): 0.49
pIC50 ([7]; A-172 (GBM), 72 hrs, WST-1 (Table 1), read-out: Absolute IC50): 4.43
Maximal efficacy, cytotoxicity (%) at 100 μM ([7]; A-172 (GBM), 72 hrs, WST-1 (Table 2)): 91.93%
SI = HME-1 IC50/cancer IC50 ([8]; U-87 MG (GBM) vs HME-1 (Table 3)): 1.46
pIC50 ([8]; U-87 MG (GBM), 72 hrs, WST-1 (Table 1), read-out: Absolute IC50): 4.91
Maximal efficacy, cytotoxicity (%) at 100 μM ([8]; U-87 MG (GBM), 72 hrs, WST-1 (Table 2)): 88.38%
SI = HME-1 IC50/cancer IC50 ([9]; MDA-MB-231 (TNBC) vs HME-1 (Table 3)): 8.49
pIC50 ([9]; MDA-MB-231 (TNBC), 72 hrs, WST-1 (Table 1), read-out: Absolute IC50): 5.67
Maximal efficacy, cytotoxicity (%) at 100 μM ([9]; MDA-MB-231 (TNBC), 72 hrs, WST-1 (Table 2)): 89.12%
SI = HME-1 IC50/cancer IC50 ([10]; MDA-MB-468 (TNBC) vs HME-1 (Table 3)): 4.02
pIC50 ([10]; MDA-MB-468 (TNBC), 72 hrs, WST-1 (Table 1), read-out: Absolute IC50): 5.35
Maximal efficacy, cytotoxicity (%) at 100 μM ([10]; MDA-MB-468 (TNBC), 72 hrs, WST-1 (Table 2)): 91.83%
SI = HME-1 IC50/cancer IC50 ([11]; DU145 (PrC) vs HME-1 (Table 3)): 2.02
pIC50 ([11]; DU145 (PrC), 72 hrs, WST-1 (Table 1), read-out: Absolute IC50): 5.05
Maximal efficacy, cytotoxicity (%) at 100 μM ([11]; DU145 (PrC), 72 hrs, WST-1 (Table 2)): 91.93%
SI = HME-1 IC50/cancer IC50 ([12]; A2780 (OvC) vs HME-1 (Table 3)): 21.13
pIC50 ([12]; A2780 (OvC), 72 hrs, WST-1 (Table 1), read-out: Absolute IC50): 6.07
Maximal efficacy, cytotoxicity (%) at 100 μM ([12]; A2780 (OvC), 72 hrs, WST-1 (Table 2)): 87.34%
SI = HME-1 IC50/cancer IC50 ([13]; A2780 Cp (OvC) vs HME-1 (Table 3)): 1.62
Maximal efficacy, cytotoxicity (%) at 100 μM ([13]; A2780 Cp (OvC), 72 hrs, WST-1 (Table 2)): 74.61%
pIC50 ([13]; A2780 Cp (OvC, cisplatin resistant), 72 hrs, WST-1 (Table 1), read-out: Absolute IC50): 4.95
SI = HME-1 IC50/cancer IC50 ([14]; A2058 (Melanoma) vs HME-1 (Table 3)): 3.69
pIC50 ([14]; A2058 (Melanoma), 72 hrs, WST-1 (Table 1), read-out: Absolute IC50): 5.31
Maximal efficacy, cytotoxicity (%) at 100 μM ([14]; A2058 (Melanoma), 72 hrs, WST-1 (Table 2)): 96.27%
SI = HME-1 IC50/cancer IC50 ([15]; NCI-1299 (NSCLC) vs HME-1 (Table 3)): 1.72
pIC50 ([15]; NCI-1299 (NSCLC), 72 hrs, WST-1 (Table 1), read-out: Absolute IC50): 4.98
Maximal efficacy, cytotoxicity (%) at 100 μM ([15]; NCI-1299 (NSCLC), 72 hrs, WST-1 (Table 2)): 75.52%
SI = HME-1 IC50/cancer IC50 ([16]; NCI-H292 (NSCLC) vs HME-1 (Table 3)): 0.70
pIC50 ([16]; NCI-H292 (NSCLC), 72 hrs, WST-1 (Table 1), read-out: Absolute IC50): 4.59
Maximal efficacy, cytotoxicity (%) at 100 μM ([16]; NCI-H292 (NSCLC), 72 hrs, WST-1 (Table 2)): 63.26%
Potency range against cancer cells [17]: within the micromolar range

COc1cccc2c1C(=O)c1c(O)c3c(c(O)c1C2=O)CC(O)(C(=O)CO)CC3OC1CC(NC(=O)C(CC(C)C)NC(=O)C(C)NC(=O)C(CC(C)C)NC(=O)CCNC(=O)CCC(=O)O)C(O)C(C)O1 [Suc-βALAL-dox, N-succinyl-beta-alanyl-L-leucyl-L-alanyl-L-leucyl-doxorubicin]
Times less toxic compared with unconjugated doxorubicin [18]: about 5 times
Times less toxic compared with unconjugated doxorubicin [19]: 3 times
Cardiotoxicity compared with Dox [20]: significantly less cardiotoxic
Clinical benefit, share of evaluable patients ([21]; phase I clinical study (Delord et al., unpublished)): 59%
Cardiac adverse events ([21]; phase I clinical study, even at very high cumulative doses (2750 mg/m^2)): No drug-related, severe cardiac adverse events were reported
Dose at which myelotoxicity occurred compared with free doxorubicin ([21]; phase I clinical study): three times higher doses
